From patent US20030104473A1, “Common ligand mimics: benzimidazoles” (priority 2001, published 2003)
Like-named read-outs stand apart in the source and are kept apart here.

Columns and labels:
Format in all cases: biochemical
[1] = biological target: 1-deoxy-D-xylulose-5-phosphate reductase (DOXPR) (Escherichia coli, UniProt P45568); assay: DOXPR kinetic assay, spectrophotometric oxidation of NADPH at 340 nm
Experimental: For DOXPR analysis, the compounds were screened using a kinetic protocol that spectrophotometrically evaluates oxidation of NADPH.
(§1) Stock solutions of each of the reagents were prepared in the following concentrations. Dilutions of the stock solutions were prepared prior to running the assay in the concentrations indicated below. DOXPR was diluted in 10 mM HEPES at a pH of 7.4.
The DOXPR reaction was monitored at 340 nm prior to and after addition of the inhibitor to detect background reaction with the inhibitor. Solutions of the inhibitors in DMSO were prepared to provide a final DMSO concentration of 5% of the total assay volume. These solutions were incubated for 6 minutes at 25° C. in a 990 μl of a solution containing 0.1 M HEPES, pH 7.4, 1 mM MnCl21.15 mM DOXP, and 8 μM NADPH. The oxidation reaction was then initiated with 10 μl of DOXP reductoisomerase (10 μg/ml). After the enzyme was added, the solution was mixed for 20 seconds, and the reaction was run for 10 minutes. After a 50 second lag, the samples were read in a Cary spectrophotometer at 340 nm. Reading of the samples was continued until 300 seconds. Cuvette #1 contained the control reaction (no inhibitor), and cuvette #2 contained the positive control reaction in which Cibacron Blue at 10.32 μM was substituted for inhibitor to yield 70 to 80% inhibition. The substrate was kept at a level at least 10 times the Km.

[2] = biological target: dihydrodipicolinate reductase (DHPR) (Escherichia coli, UniProt P04036); assay: DHPR kinetic assay, spectrophotometric oxidation of NADPH at 340 nm
Experimental: For DHPR analysis, the compounds were screened using a kinetic protocol that spectrophotometrically evaluates oxidation of NADPH.
as §1, with “DHPR” for “DOXPR”, “7.4. DHPS (dihydrodipicolinate synthase) was not diluted and was stored in eppindorf tubes.” for “7.4.”
The L-ASA (L-aspartate semialdehyde) solution was prepared in the following manner. […] stock solution of ASA was prepared. 100 μl of the ASA stock solution was mixed with 150 μl of concentrated NaHCO3 and 375 μl of H2O. For use in the assay, 28.8 mM L-ASA was equal to 625 μl of the solution. The L-ASA stock Aft solution was kept at a temperature of −20° C. After dilution, the pH of the 28.8 mM solution was checked and maintained between 1 and 2.
The DHPS reaction was monitored at 340 nm prior to and after addition of the inhibitor to detect background reaction with the inhibitor. The solution for background detection was a 945 μl solution containing 0.1 HEPES (pH 7.8), 1 mM pyruvate, 6 μM NADPH, 40 μM L-ASA, and 7 μl of 1 mg/ml DHPS at 25° C. in the volumes provided above. The sample solution was then mixed and incubated for 10 minutes. Next, 500 nM solutions of the inhibitors and enough DMSO to provide a final DMSO concentration of 5% of the total assay volume were added. The solution was mixed and incubated for an additional 6 minutes.
In DHPR samples, 5 μl of the diluted DHPR enzyme were added. The sample was mixed for 20 seconds and then the reaction was run for 10 minutes. After a 50 second lag, the samples were read in a Cary spectrophotometer at 340 nm. Reading of the samples was continued until 300 seconds. Cuvette #1 contained the control reaction (no inhibitor), and cuvette #2 contained the positive control reaction in which Cibacron Blue at 2.58 μM was substituted for inhibitor to yield 70 to 80% inhibition. The substrate was kept at a level at least 10 times the Km. The final concentration of L-ASA was about 1 mM.

[3] = biological target: dihydrofolate reductase (DHFR) (UniProt P00374); assay: DHFR kinetic assay, spectrophotometric oxidation of NADH at 340 nm
Experimental: For DHFR analysis, the compounds were screened using a kinetic protocol that spectrophotometrically evaluates oxidation of NADH.
Stock solutions of each of the reagents were prepared in the following concentrations. Dilutions of the stock solutions were prepared prior to running the assay in the concentrations indicated below. H2 folate was dissolved in DMSO to about 10 mM and then diluted with water to a concentration of 0.1 mM.
The DHFR reaction was monitored at 340 nm prior to and after addition of the inhibitor to detect background reaction with the inhibitor. Solutions of 100 μl of the inhibitors in DMSO were prepared to provide a final DMSO concentration of 5% of the total assay volume. These solutions were incubated for 6 minutes at 25° C. in a 992 μl of a solution containing 0.1 M Tris-HCl, pH 7.0, 150 mM KCl, 5 μM H2 folate, and 52 μM NADH. The oxidation reaction was then initiated with 8 μl of DHFR (0.047 mg/ml). After the enzyme was added, the solution was mixed for 20 seconds, and the reaction was run for 10 minutes. After a 50 second lag, the samples were read in a Cary spectrophotometer at 340 nm. Reading of the samples was continued until 300 seconds. Cuvette #1 always contained the control reaction (no inhibitor), and cuvette #2 always contained the positive control reaction in which Cibacron Blue at 3 μM was substituted for inhibitor to yield 50 to 70% inhibition. […]

Sequence of dihydrodipicolinate reductase (DHPR) (P04036 whole entry): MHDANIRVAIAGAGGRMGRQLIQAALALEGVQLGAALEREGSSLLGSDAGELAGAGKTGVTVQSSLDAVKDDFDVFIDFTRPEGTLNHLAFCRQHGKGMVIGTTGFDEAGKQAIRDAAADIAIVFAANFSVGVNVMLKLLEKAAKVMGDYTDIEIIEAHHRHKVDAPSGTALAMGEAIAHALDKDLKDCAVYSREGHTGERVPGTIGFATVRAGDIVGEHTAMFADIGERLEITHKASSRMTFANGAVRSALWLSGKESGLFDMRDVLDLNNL
Sequence of 1-deoxy-D-xylulose-5-phosphate reductase (DOXPR) (P45568 whole entry): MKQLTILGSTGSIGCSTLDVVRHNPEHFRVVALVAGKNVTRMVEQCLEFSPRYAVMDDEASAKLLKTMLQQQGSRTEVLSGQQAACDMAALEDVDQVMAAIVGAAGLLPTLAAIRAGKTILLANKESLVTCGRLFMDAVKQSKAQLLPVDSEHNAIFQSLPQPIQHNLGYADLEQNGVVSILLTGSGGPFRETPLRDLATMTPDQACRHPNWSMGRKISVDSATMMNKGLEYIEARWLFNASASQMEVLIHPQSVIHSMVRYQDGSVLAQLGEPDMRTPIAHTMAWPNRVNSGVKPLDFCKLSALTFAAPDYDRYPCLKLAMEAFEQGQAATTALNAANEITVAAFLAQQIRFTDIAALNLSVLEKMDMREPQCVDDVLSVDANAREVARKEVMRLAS
Sequence of dihydrofolate reductase (DHFR) (P00374 whole entry): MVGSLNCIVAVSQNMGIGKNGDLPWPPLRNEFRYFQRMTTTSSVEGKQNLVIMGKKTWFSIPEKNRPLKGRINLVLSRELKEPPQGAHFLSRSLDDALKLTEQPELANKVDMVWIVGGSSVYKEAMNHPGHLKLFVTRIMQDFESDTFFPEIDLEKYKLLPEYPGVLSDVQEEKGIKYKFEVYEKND

Structure (SMILES) | IC50 ([1]; Example 13 oxidoreductase panel (FIG. 7), read-out: IC50 for DOXPR) | IC50 ([2]; Example 13 oxidoreductase panel (FIG. 7), read-out: IC50 for DHPR) | IC50 ([2]; Example 14, common ligand mimics (FIG. 8), read-out: IC50 for DHPR) | IC50 ([3]; Example 13 oxidoreductase panel (FIG. 7); read-out: IC50 for DHFR) | IC50 [1] | IC50 ([2]; IC50 for DHPR, Example 13 oxidoreductase panel (FIG. 7)) | IC50 ([2]; IC50 for DHPR, Example 14, common ligand mimics (FIG. 8)) | IC50 ([3]; read-out: IC50 for DHFR; Example 13 oxidoreductase panel (FIG. 7))
O=C(O)c1ccc(-c2ccc(-c3nc4ccccc4[nH]3)o2)cc1 [compound 6b, 4-[5-(1H-benzoimidazol-2-yl)-furan-2-yl] benzoic acid] | > 60 µM | > 48 µM | 32.6 µM | > 40 µM | – | – | – | –
O=C(O)c1ccc(-c2ccc(-c3nc4cc([N+](=O)[O-])ccc4[nH]3)o2)cc1 [compound 6d, 4-[5-(5-nitro-1H-benzoimidazol-2-yl)-furan-2-yl]-benzoic acid] | – | – | – | – | 21.4 µM | > 75 µM | > 75 µM | 48.5 µM
